Source: ChEMBL document CHEMBL5316338, “Discovery of Novel PTP1B Inhibitors with Once-Weekly Therapeutic Potential for Type 2 Diabetes: Design, Synthesis, and In Vitro and In Vivo Investigations of BimBH3 Peptide Analogues” (J Med Chem, 2023)
pIC50: −log10 of the molar value. Square brackets hold non-standard residues; d marks the D form. Peptide text beside a SMILES is read from it. * marks the point of attachment. ξ: configuration not given here. C17 diacid = O=C(O)CCCCCCCCCCCCCCCC(=O)*; Docosanoyl = CCCCCCCCCCCCCCCCCCCCCC(=O)*; C16 diacid = O=C(O)CCCCCCCCCCCCCCC(=O)*; Nonadecanoyl = CCCCCCCCCCCCCCCCCCC(=O)*; Arachidoyl = CCCCCCCCCCCCCCCCCCCC(=O)*; Heptadecanoyl = CCCCCCCCCCCCCCCCC(=O)*; Pentadecanoyl = CCCCCCCCCCCCCCC(=O)*; Palmitoyl = CCCCCCCCCCCCCCCC(=O)*; Tridecanoyl = CCCCCCCCCCCCC(=O)*; Lauroyl = CCCCCCCCCCCC(=O)*; Decanoyl = CCCCCCCCCC(=O)*; ξR = N=C(N)NCCCC(N)C(=O)O

Tests used:
[1] = molecular target: T1, Tyrosine-protein phosphatase non-receptor type 1 (Homo sapiens) (UniProt P18031); experiment: Inhibition of N-terminal His tagged recombinant human PTP1B expressed in Escherichia coli using pNPP as substrate assessed as substrate hydrolysis at 40 umol/L relative to control; conditions: dose 40.0 µmol/L
T1 sequence (whole entry): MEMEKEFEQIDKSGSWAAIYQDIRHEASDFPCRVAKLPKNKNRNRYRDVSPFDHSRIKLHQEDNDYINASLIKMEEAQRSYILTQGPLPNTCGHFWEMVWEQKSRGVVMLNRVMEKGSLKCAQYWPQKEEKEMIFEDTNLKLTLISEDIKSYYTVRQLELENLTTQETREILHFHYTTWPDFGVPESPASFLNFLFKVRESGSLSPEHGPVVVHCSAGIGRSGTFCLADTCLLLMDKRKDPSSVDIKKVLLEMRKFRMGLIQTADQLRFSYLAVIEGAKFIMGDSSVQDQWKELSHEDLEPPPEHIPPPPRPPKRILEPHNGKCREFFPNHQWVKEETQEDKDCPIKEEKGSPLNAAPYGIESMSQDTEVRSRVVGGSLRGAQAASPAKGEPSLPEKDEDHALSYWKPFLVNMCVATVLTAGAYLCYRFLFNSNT

[2] = molecular target: T2, Tyrosine-protein phosphatase non-receptor type 1 (Homo sapiens, UniProt P18031); experiment: Inhibition of N-terminal His tagged recombinant human PTP1B expressed in Escherichia coli using pNPP as substrate assessed as substrate hydrolysis
T2 sequence (P18031 whole entry): T1 sequence (whole entry)

Proteinase K = experiment: Stability of compound assessed as Proteinase K (unknown origin) mediated compound degradation by measuring half-life by HPLC analysis; type: ADME
Pepsin = experiment: Stability of compound assessed as Pepsin (unknown origin) mediated compound degradation by measuring half-life by HPLC analysis; type: ADME; conditions: human
chymotrypsin [3] = molecular target: chymotrypsin (Homo sapiens, UniProt P17538+P40313+Q6GPI1+Q99895); experiment: Stability of compound assessed as chymotrypsin (unknown origin) mediated compound degradation by measuring half-life by RP-HPLC analysis; type: ADME, protein assay
carboxypeptidase A = molecular target: T3, carboxypeptidase A (Homo sapiens, UniProt P15085); experiment: Stability of compound assessed as carboxypeptidase A (unknown origin) mediated compound degradation by measuring half-life by RP-HPLC analysis; type: ADME
T3 sequence (P15085 whole entry): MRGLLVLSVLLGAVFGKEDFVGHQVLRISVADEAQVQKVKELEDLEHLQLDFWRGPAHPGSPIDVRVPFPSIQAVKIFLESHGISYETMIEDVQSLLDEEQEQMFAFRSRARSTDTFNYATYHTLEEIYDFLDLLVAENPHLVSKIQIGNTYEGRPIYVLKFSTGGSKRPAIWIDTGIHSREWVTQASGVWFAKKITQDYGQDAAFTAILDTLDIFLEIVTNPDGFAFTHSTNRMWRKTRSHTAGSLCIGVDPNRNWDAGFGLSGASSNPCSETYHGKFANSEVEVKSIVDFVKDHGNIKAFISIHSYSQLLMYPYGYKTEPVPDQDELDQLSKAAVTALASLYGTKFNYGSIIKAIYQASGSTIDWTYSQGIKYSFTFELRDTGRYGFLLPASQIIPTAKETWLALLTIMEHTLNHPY

[4] = Stability of compound assessed as Proteinase K (unknown origin) mediated compound degradation by measuring fold change of half-life by HPLC analysis relative to BimBH312-mer peptide; type: ADME
[5] = Stability of compound assessed as Pepsin (unknown origin) mediated compound degradation by measuring fold change of half-life by HPLC analysis relative to BimBH312-mer peptide; type: ADME; conditions: human
Chymotrypsin [6] = molecular target: Chymotrypsin (Homo sapiens, UniProt Q99895+P17538+P40313+Q6GPI1); experiment: Stability of compound assessed as chymotrypsin (unknown origin) mediated compound degradation by measuring fold change of half-life by RP-HPLC analysis relative to BimBH312-mer peptide; type: ADME, protein assay
Carboxypeptidase A1 = molecular target: T4, Carboxypeptidase A1 (Homo sapiens, UniProt P15085); experiment: Stability of compound assessed as carboxypeptidase A (unknown origin) mediated compound degradation by measuring fold change of half-life by RP-HPLC analysis relative to BimBH312-mer peptide; type: ADME
T4 sequence (P15085 whole entry): T3 sequence (P15085 whole entry)

Compound | inhibition [1] | pIC50 [2] | further results
CCCCCCCCCCCCCCCCCCCCCC(=O)N[C@H](C(=O)N[C@@H](C)C(=O)N[C@@H](CCC(N)=O)C(=O)N[C@@H](CCC(=O)O)C(=O)N[C@@H](CC(C)C)C(=O)N[C@@H](CCCNC(=N)N)C(=O)NC(CCCNC(=N)N)C(=O)N[C@H](C(=O)NCC(=O)N[C@@H](CC(=O)O)C(=O)N[C@@H](CCC(=O)O)C(=O)N[C@@H](Cc1ccccc1)C(=O)O)[C@@H](C)CC)[C@@H](C)CC (stereo not given in full) (Docosanoyl-IAQELR[ξR]IGDEF-OH) | > 50% | 5.17 | –
CCCCCCCCCCCCCCCCCCC(=O)N[C@H](C(=O)N[C@@H](C)C(=O)N[C@@H](CCC(N)=O)C(=O)N[C@@H](CCC(=O)O)C(=O)N[C@@H](CC(C)C)C(=O)N[C@@H](CCCNC(=N)N)C(=O)NC(CCCNC(=N)N)C(=O)N[C@H](C(=O)NCC(=O)N[C@@H](CC(=O)O)C(=O)N[C@@H](CCC(=O)O)C(=O)N[C@@H](Cc1ccccc1)C(=O)O)[C@@H](C)CC)[C@@H](C)CC (stereo not given in full) (Nonadecanoyl-IAQELR[ξR]IGDEF-OH) | > 50% | 6.36 | –
CCCCCCCCCC(=O)N[C@H](C(=O)N[C@@H](C)C(=O)N[C@@H](CCC(N)=O)C(=O)N[C@@H](CCC(=O)O)C(=O)N[C@@H](CC(C)C)C(=O)N[C@@H](CCCNC(=N)N)C(=O)N[C@@H](CCCNC(=N)N)C(=O)N[C@H](C(=O)NCC(=O)N[C@@H](CC(=O)O)C(=O)N[C@@H](CCC(=O)O)C(=O)N[C@@H](Cc1ccccc1)C(=O)O)[C@@H](C)CC)[C@@H](C)CC (Decanoyl-IAQELRRIGDEF-OH) | > 50% | 5.67 | –
CCCCCCCCCCCC(=O)N[C@H](C(=O)N[C@@H](C)C(=O)N[C@@H](CCC(N)=O)C(=O)N[C@@H](CCC(=O)O)C(=O)N[C@@H](CC(C)C)C(=O)N[C@@H](CCCNC(=N)N)C(=O)N[C@@H](CCCNC(=N)N)C(=O)N[C@H](C(=O)NCC(=O)N[C@@H](CC(=O)O)C(=O)N[C@@H](CCC(=O)O)C(=O)N[C@@H](Cc1ccccc1)C(=O)O)[C@@H](C)CC)[C@@H](C)CC (Lauroyl-IAQELRRIGDEF-OH) | > 50% | 5.56 | –
CCCCCCCCCCCCCCCCCCCC(=O)N[C@H](C(=O)N[C@@H](C)C(=O)N[C@@H](CCC(N)=O)C(=O)N[C@@H](CCC(=O)O)C(=O)N[C@@H](CC(C)C)C(=O)N[C@@H](CCCNC(=N)N)C(=O)NC(CCCNC(=N)N)C(=O)N[C@H](C(=O)NCC(=O)N[C@@H](CC(=O)O)C(=O)N[C@@H](CCC(=O)O)C(=O)N[C@@H](Cc1ccccc1)C(=O)O)[C@@H](C)CC)[C@@H](C)CC (stereo not given in full) (Arachidoyl-IAQELR[ξR]IGDEF-OH) | > 50% | 5.41 | –
CCCCCCCCCCCCCCC(=O)N[C@H](C(=O)N[C@@H](C)C(=O)N[C@@H](CCC(N)=O)C(=O)N[C@@H](CCC(=O)O)C(=O)N[C@@H](CC(C)C)C(=O)N[C@@H](CCCNC(=N)N)C(=O)N[C@@H](CCCNC(=N)N)C(=O)N[C@H](C(=O)NCC(=O)N[C@@H](CC(=O)O)C(=O)N[C@@H](CCC(=O)O)C(=O)N[C@@H](Cc1ccccc1)C(=O)O)[C@@H](C)CC)[C@@H](C)CC (Pentadecanoyl-IAQELRRIGDEF-OH) | > 50% | 5.78 | –
CCCCCCCCCCCCC(=O)N[C@H](C(=O)N[C@@H](C)C(=O)N[C@@H](CCC(N)=O)C(=O)N[C@@H](CCC(=O)O)C(=O)N[C@@H](CC(C)C)C(=O)N[C@@H](CCCNC(=N)N)C(=O)N[C@@H](CCCNC(=N)N)C(=O)N[C@H](C(=O)NCC(=O)N[C@@H](CC(=O)O)C(=O)N[C@@H](CCC(=O)O)C(=O)N[C@@H](Cc1ccccc1)C(=O)O)[C@@H](C)CC)[C@@H](C)CC (Tridecanoyl-IAQELRRIGDEF-OH) | > 50% | 6.08 | –

Further lines, with some results ahead:

inhibition [1] | pIC50 [2] | Compound | further results
> 50% | 5.54 | CC[C@H](C)[C@H](NC(=O)CCCCCCCCCCCCCCC(=O)O)C(=O)N[C@@H](C)C(=O)N[C@@H](CCC(N)=O)C(=O)N[C@@H](CCC(=O)O)C(=O)N[C@@H](CC(C)C)C(=O)N[C@@H](CCCNC(=N)N)C(=O)N[C@@H](CCCNC(=N)N)C(=O)N[C@H](C(=O)NCC(=O)N[C@@H](CC(=O)O)C(=O)N[C@@H](CCC(=O)O)C(=O)N[C@@H](Cc1ccccc1)C(=O)O)[C@@H](C)CC ({C16 diacid}-IAQELRRIGDEF-OH) | –
> 50% | 5.87 | CC[C@H](C)[C@H](NC(=O)CCCCCCCCCCCCCCCC(=O)O)C(=O)N[C@@H](C)C(=O)N[C@@H](CCC(N)=O)C(=O)N[C@@H](CCC(=O)O)C(=O)N[C@@H](CC(C)C)C(=O)N[C@@H](CCCNC(=N)N)C(=O)NC(CCCNC(=N)N)C(=O)N[C@H](C(=O)NCC(=O)N[C@@H](CC(=O)O)C(=O)N[C@@H](CCC(=O)O)C(=O)N[C@@H](Cc1ccccc1)C(=O)O)[C@@H](C)CC (stereo not given in full) ({C17 diacid}-IAQELR[ξR]IGDEF-OH) | –
> 50% | 5.59 | CCCCCCCCCCCCCCCCC(=O)N[C@H](C(=O)N[C@@H](C)C(=O)N[C@@H](CCC(N)=O)C(=O)N[C@@H](CCC(=O)O)C(=O)N[C@@H](CC(C)C)C(=O)N[C@@H](CCCNC(=N)N)C(=O)N[C@@H](CCCNC(=N)N)C(=O)N[C@H](C(=O)NCC(=O)N[C@@H](CC(=O)O)C(=O)N[C@@H](CCC(=O)O)C(=O)N[C@@H](Cc1ccccc1)C(=O)O)[C@@H](C)CC)[C@@H](C)CC (Heptadecanoyl-IAQELRRIGDEF-OH) | –
> 50% | 6.02 | CCCCCCCCCCCCCCCC(=O)N[C@H](C(=O)N[C@@H](C)C(=O)N[C@@H](CCC(N)=O)C(=O)N[C@@H](CCC(=O)O)C(=O)N[C@@H](CC(C)C)C(=O)N[C@@H](CCCNC(=N)N)C(=O)N[C@@H](CCCNC(=N)N)C(=O)N[C@H](C(=O)NCC(=O)N[C@@H](CC(=O)O)C(=O)N[C@@H](CCC(=O)O)C(=O)N[C@@H](Cc1ccccc1)C(=O)O)[C@@H](C)CC)[C@@H](C)CC (Palmitoyl-IAQELRRIGDEF-OH) | half-life (Proteinase K): 2.82 h; half-life (Pepsin): 2.7 h; half-life (chymotrypsin [3]): 0.56 h; half-life (carboxypeptidase A): 3.19 h; fold change (FC) [4]: 56.4; fold change (FC) [5]: 122.7; fold change (FC) (Chymotrypsin [6]): 13; fold change (FC) (Carboxypeptidase A1): 99.7
